Laboratory results reported in PubChem BioAssay (NCI).
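Cells were grown in 96-well plates and exposed to each compound for 48 hours at five concentrations; endpoints were interpolated linearly between bracketing concentrations, or set to the highest concentration if not reached. GI50 marks 50% less growth. TGI: total growth inhibition.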

Columns and labels:
Test in all cases: NCI anticancer screen, dose series, 48 h; in the data active = GI50 below about 0.43 µM; inactive = the rest
786-0 renal = system: 786-0 renal
A498 renal = system: A498 renal
A549 NSCLC = system: A549 NSCLC
ACHN renal = system: ACHN renal
BT-549 breast = system: BT-549 breast
CAKI-1 renal = system: CAKI-1 renal
CCRF-CEM leukemia = system: CCRF-CEM leukemia
COLO 205 colon = system: COLO 205 colon
DU-145 prostate = system: DU-145 prostate
EKVX NSCLC = system: EKVX NSCLC
HCC-2998 colon = system: HCC-2998 colon
HCT-116 colon = system: HCT-116 colon
HCT-15 colon = system: HCT-15 colon
HL-60(TB) leukemia = system: HL-60(TB) leukemia
HOP-62 NSCLC = system: HOP-62 NSCLC
HOP-92 NSCLC = system: HOP-92 NSCLC
HS 578T breast = system: HS 578T breast
HT29 colon = system: HT29 colon
IGROV1 ovarian = system: IGROV1 ovarian
K-562 leukemia = system: K-562 leukemia
KM12 colon = system: KM12 colon
LOX IMVI melanoma = system: LOX IMVI melanoma
M14 melanoma = system: M14 melanoma
MALME-3M melanoma = system: MALME-3M melanoma
MCF7 breast = system: MCF7 breast
MDA-MB-231 breast = system: MDA-MB-231 breast
MDA-MB-435 = system: MDA-MB-435
MOLT-4 leukemia = system: MOLT-4 leukemia
NCI-H226 lung = system: NCI-H226 lung
NCI-H23 lung = system: NCI-H23 lung
NCI-H460 lung = system: NCI-H460 lung
NCI-H522 lung = system: NCI-H522 lung
NCI/ADR-RES ovarian = system: NCI/ADR-RES ovarian
OVCAR-3 ovarian = system: OVCAR-3 ovarian
OVCAR-4 ovarian = system: OVCAR-4 ovarian
OVCAR-5 ovarian = system: OVCAR-5 ovarian
OVCAR-8 ovarian = system: OVCAR-8 ovarian
PC-3 prostate = system: PC-3 prostate
RPMI-8226 leukemia = system: RPMI-8226 leukemia
RXF 393 renal = system: RXF 393 renal
SF-268 CNS = system: SF-268 CNS
SF-295 CNS = system: SF-295 CNS
SF-539 CNS = system: SF-539 CNS
SK-MEL-2 melanoma = system: SK-MEL-2 melanoma
SK-MEL-28 melanoma = system: SK-MEL-28 melanoma
SK-MEL-5 melanoma = system: SK-MEL-5 melanoma
SK-OV-3 ovarian = system: SK-OV-3 ovarian
SN12C renal = system: SN12C renal
SNB-19 CNS = system: SNB-19 CNS
SNB-75 CNS = system: SNB-75 CNS
SR leukemia = system: SR leukemia
SW-620 colon = system: SW-620 colon
T-47D breast = system: T-47D breast
TK-10 renal = system: TK-10 renal
U251 CNS = system: U251 CNS
UACC-257 melanoma = system: UACC-257 melanoma
UACC-62 melanoma = system: UACC-62 melanoma
UO-31 renal = system: UO-31 renal
MDA-N = system: MDA-N

COc1ccc(C(=O)c2cc(OC)c(OC)c(OC)c2)cc1O
> 49.5 µM: TGI (HT29 colon)
13.3 µM: TGI (COLO 205 colon)
5.7 µM: TGI (A498 renal)
0.315 µM: TGI (SK-MEL-5 melanoma)
> 64.9 µM: TGI (RPMI-8226 leukemia)
active: GI50 (A549 NSCLC) 0.0717 µM | GI50 (ACHN renal) 0.0433 µM | GI50 (BT-549 breast) 0.0337 µM | GI50 (CAKI-1 renal) 0.363 µM | GI50 (CCRF-CEM leukemia) 0.0308 µM | GI50 (DU-145 prostate) 0.0387 µM | GI50 (HCC-2998 colon) 0.0832 µM | GI50 (HCT-116 colon) 0.0376 µM | GI50 (HCT-15 colon) < 0.01 µM | GI50 (HL-60(TB) leukemia) 0.0103 µM | GI50 (HOP-62 NSCLC) 0.0931 µM | GI50 (HS 578T breast) 0.028 µM | GI50 (IGROV1 ovarian) 0.278 µM | GI50 (K-562 leukemia) < 0.01 µM | GI50 (KM12 colon) < 0.0155 µM | GI50 (LOX IMVI melanoma) 0.0114 µM | GI50 (M14 melanoma) < 0.01 µM | GI50 (MCF7 breast) 0.0327 µM | GI50 (MDA-MB-231 breast) 0.0559 µM | GI50 (MDA-MB-435) < 0.01 µM | GI50 (MOLT-4 leukemia) 0.0367 µM | GI50 (NCI-H23 lung) 0.055 µM | GI50 (NCI-H460 lung) 0.0373 µM | GI50 (NCI-H522 lung) < 0.0164 µM | GI50 (NCI/ADR-RES ovarian) 0.0118 µM | GI50 (OVCAR-3 ovarian) 0.0207 µM | GI50 (OVCAR-8 ovarian) 0.0427 µM | GI50 (PC-3 prostate) 0.0285 µM | GI50 (RPMI-8226 leukemia) 0.0342 µM | GI50 (RXF 393 renal) 0.0167 µM | GI50 (SF-268 CNS) 0.0613 µM | GI50 (SF-295 CNS) 0.367 µM | GI50 (SF-539 CNS) 0.0112 µM | GI50 (SK-MEL-2 melanoma) 0.238 µM | GI50 (SK-MEL-5 melanoma) 0.0439 µM | GI50 (SK-OV-3 ovarian) 0.395 µM | GI50 (SN12C renal) 0.0668 µM | GI50 (SNB-19 CNS) 0.268 µM | GI50 (SNB-75 CNS) < 0.01 µM | GI50 (SR leukemia) < 0.01 µM | GI50 (SW-620 colon) < 0.01 µM | GI50 (U251 CNS) 0.0425 µM | GI50 (UO-31 renal) 0.296 µM
0.0511 µM: TGI (OVCAR-3 ovarian)
> 100 µM: TGI (786-0 renal) | TGI (A549 NSCLC) | TGI (ACHN renal) | TGI (BT-549 breast) | TGI (CAKI-1 renal) | TGI (CCRF-CEM leukemia) | TGI (DU-145 prostate) | TGI (EKVX NSCLC) | TGI (HCC-2998 colon) | TGI (HCT-116 colon) | TGI (HCT-15 colon) | TGI (HOP-62 NSCLC) | TGI (HOP-92 NSCLC) | TGI (HS 578T breast) | TGI (IGROV1 ovarian) | TGI (K-562 leukemia) | TGI (KM12 colon) | TGI (LOX IMVI melanoma) | TGI (M14 melanoma) | TGI (MALME-3M melanoma) | TGI (MCF7 breast) | TGI (MDA-MB-231 breast) | TGI (MOLT-4 leukemia) | TGI (NCI-H226 lung) | TGI (NCI-H23 lung) | TGI (NCI-H460 lung) | TGI (NCI/ADR-RES ovarian) | TGI (OVCAR-4 ovarian) | TGI (OVCAR-5 ovarian) | TGI (OVCAR-8 ovarian) | TGI (PC-3 prostate) | TGI (RXF 393 renal) | TGI (SF-268 CNS) | TGI (SF-295 CNS) | TGI (SK-MEL-2 melanoma) | TGI (SK-MEL-28 melanoma) | TGI (SK-OV-3 ovarian) | TGI (SN12C renal) | TGI (SNB-19 CNS) | TGI (SNB-75 CNS) | TGI (SR leukemia) | TGI (SW-620 colon) | TGI (T-47D breast) | TGI (TK-10 renal) | TGI (U251 CNS) | TGI (UACC-257 melanoma) | TGI (UACC-62 melanoma) | TGI (UO-31 renal)
0.0557 µM: TGI (HL-60(TB) leukemia) | TGI (SF-539 CNS)
inactive: GI50 (786-0 renal) 0.914 µM | GI50 (A498 renal) 1.4 µM | GI50 (COLO 205 colon) 1.36 µM | GI50 (EKVX NSCLC) 0.791 µM | GI50 (HOP-92 NSCLC) 0.539 µM | GI50 (HT29 colon) 1.96 µM | GI50 (MALME-3M melanoma) > 100 µM | GI50 (NCI-H226 lung) 4.76 µM | GI50 (OVCAR-4 ovarian) 0.61 µM | GI50 (OVCAR-5 ovarian) 1.6 µM | GI50 (SK-MEL-28 melanoma) > 80.8 µM | GI50 (T-47D breast) 26 µM | GI50 (TK-10 renal) > 61.5 µM | GI50 (UACC-257 melanoma) > 100 µM | GI50 (UACC-62 melanoma) 1.1 µM

CSc1nc(-c2cc3c(c(SC)n2)CCC3)cc2c1CCC2
> 100 µM: TGI (786-0 renal) | TGI (A498 renal) | TGI (A549 NSCLC) | TGI (ACHN renal) | TGI (BT-549 breast) | TGI (CAKI-1 renal) | TGI (CCRF-CEM leukemia) | TGI (COLO 205 colon) | TGI (DU-145 prostate) | TGI (EKVX NSCLC) | TGI (HCC-2998 colon) | TGI (HCT-116 colon) | TGI (HCT-15 colon) | TGI (HL-60(TB) leukemia) | TGI (HOP-62 NSCLC) | TGI (HT29 colon) | TGI (K-562 leukemia) | TGI (KM12 colon) | TGI (M14 melanoma) | TGI (MDA-MB-231 breast) | TGI (MDA-MB-435) | TGI (MDA-N) | TGI (MOLT-4 leukemia) | TGI (NCI-H226 lung) | TGI (NCI-H23 lung) | TGI (NCI-H460 lung) | TGI (NCI-H522 lung) | TGI (NCI/ADR-RES ovarian) | TGI (OVCAR-3 ovarian) | TGI (OVCAR-4 ovarian) | TGI (OVCAR-5 ovarian) | TGI (OVCAR-8 ovarian) | TGI (PC-3 prostate) | TGI (RPMI-8226 leukemia) | TGI (RXF 393 renal) | TGI (SF-268 CNS) | TGI (SF-295 CNS) | TGI (SF-539 CNS) | TGI (SK-MEL-2 melanoma) | TGI (SK-MEL-28 melanoma) | TGI (SK-MEL-5 melanoma) | TGI (SK-OV-3 ovarian) | TGI (SN12C renal) | TGI (SNB-19 CNS) | TGI (SNB-75 CNS) | TGI (SW-620 colon) | TGI (TK-10 renal) | TGI (U251 CNS) | TGI (UACC-257 melanoma) | TGI (UACC-62 melanoma) | TGI (UO-31 renal)
